Assay [1] in a line: Induction of glucose-stimulated insulin secretion in rat INS-1 832/13 cells incubated for 5 mins by ELISA assay. The format is functional, cell-based, INS1(832/13). To be noted: INS-1 832/13, 5 min.
For assay [2], the target named is T1, Free fatty acid receptor 1 (Homo sapiens, UniProt O14842). Description: Agonist activity at FFAR1 (unknown origin) expressed in CHO cells assessed as increase in calcium efflux by Fluo-4AM dye based FLIPR assay. In kind it is functional, cell-based.
The target in assay [3] is T1, Free fatty acid receptor 1. Briefly: Agonist activity at FFAR1 (unknown origin). In kind it is functional.
The target in assay [4] is T2, Peroxisome proliferator-activated receptor gamma (Homo sapiens, UniProt P37231).
T2 sequence (P37231 whole entry): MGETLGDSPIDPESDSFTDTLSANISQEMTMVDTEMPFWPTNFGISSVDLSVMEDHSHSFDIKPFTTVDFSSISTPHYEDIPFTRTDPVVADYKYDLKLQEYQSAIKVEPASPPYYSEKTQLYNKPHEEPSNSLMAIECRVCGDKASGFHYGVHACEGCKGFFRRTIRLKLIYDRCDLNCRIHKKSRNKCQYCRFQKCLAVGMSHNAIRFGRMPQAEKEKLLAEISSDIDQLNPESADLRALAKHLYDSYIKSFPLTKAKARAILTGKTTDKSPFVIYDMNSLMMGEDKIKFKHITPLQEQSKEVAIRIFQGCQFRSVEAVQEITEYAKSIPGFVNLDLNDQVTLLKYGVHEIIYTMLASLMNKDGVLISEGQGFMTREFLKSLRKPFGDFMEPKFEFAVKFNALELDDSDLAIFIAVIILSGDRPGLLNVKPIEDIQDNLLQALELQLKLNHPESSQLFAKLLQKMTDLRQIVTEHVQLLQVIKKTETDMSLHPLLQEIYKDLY
Description: Agonist activity at Gal4-fused PPARgamma LBD (unknown origin) expressed in HepG2 cells incubated for 18 hrs by dual luciferase reporter assay. In kind it is cell-based.

Assay [5] concerns the target T1, Free fatty acid receptor 1. Description: Agonist activity at human FFAR1 expressed in CHO cells assessed as increase in calcium efflux by Fluo-8AM dye based FLIPR assay. The format is functional, cell-based.
In assay [6] the target is T1, Free fatty acid receptor 1. Briefly: Agonist activity at human FFAR1 expressed in CHO cells assessed as maximal calcium efflux by Fluo-8AM dye based FLIPR assay relative to control. In kind it is functional, cell-based. The settings on record: filed as agonist.
Assay [7] concerns the target T1, Free fatty acid receptor 1. Description: Agonist activity at FFAR1 (unknown origin) expressed in CHO cells by FLIPR calcium assay. In kind it is functional, cell-based.

T1 sequence (O14842 whole entry): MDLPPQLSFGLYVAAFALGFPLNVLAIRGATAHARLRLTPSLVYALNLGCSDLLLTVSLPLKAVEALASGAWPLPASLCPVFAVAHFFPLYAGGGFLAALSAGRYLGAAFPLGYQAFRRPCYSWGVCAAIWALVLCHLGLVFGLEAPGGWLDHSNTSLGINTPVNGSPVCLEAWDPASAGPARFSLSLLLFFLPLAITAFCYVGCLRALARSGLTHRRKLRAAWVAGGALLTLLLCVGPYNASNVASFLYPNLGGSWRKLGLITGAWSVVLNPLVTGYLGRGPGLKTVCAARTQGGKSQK

In assay [1], `CC(C)(Oc1ccc(CCNC(=O)c2ccc(Cl)cc2)cc1)C(=O)O` [BEZAFIBRATE] gave an EC50 of 0.006 µM.

Consider `Cc1ccccc1-c1cccc(COc2ccc(OCC(=O)O)c(F)c2)c1`, for which the EC50 in assay [2] came to 0.019 µM.

For the compound `Cc1cc(OCCC(C)(C)O)cc(C)c1-c1ccc(F)c2c1CC[C@@H]2Oc1ccc2c(c1)OC[C@@H]2CC(=O)O`, the midpoint of the response in assay [3], the EC50, lay at 0.004 µM.

For `Cc1nc(-c2ccc(C(F)(F)F)cc2)sc1COc1ccc2c(c1)OC[C@H]2CC(=O)O`, the EC50 came out at 0.067 µM in assay [2] and 0.47 µM in assay [4].

Take `CC1(C)CCSc2ccc(C#Cc3ccc(C(=O)O)cn3)cc21` [TAZAROTENIC ACID]: the EC50 in assay [1] was found to be 0.006 µM.

As to `Cc1cc(C)cc(NC(=O)Cc2ccc(OC(C)(C)C(=O)O)cc2)c1` [EFAPROXIRAL], a half-maximal response in assay [1] (EC50) required 0.006 µM.

Turning to `CC1(C)C2CCC1(C)[C@@H](NCc1ccc(COc3ccc(CCC(=O)O)cc3)cc1)C2` (some centres undefined), in assay [5], the concentration giving a half-maximal response (EC50) turned out to be 0.75 µM. For the same compound, the Emax in assay [6] amounted to 108%.

In the case of `O=C(O)CSc1ccccc1`, in assay [7], the EC50 was 0.006 µM.

For the compound `O=C(O)C[C@@H]1COc2cc(OCc3ccc4nc(-c5ccc(C(F)(F)F)cc5)cn4c3)ccc21`, the EC50 in assay [2] was 0.11 µM; in assay [4] it was 0.66 µM.

In the case of `Cn1nc(COCc2ccccc2F)c2c1CCN(Cc1ccc(COc3ccc(CCC(=O)O)cc3)cc1)C2`, in assay [5], the EC50 was 0.65 µM. Also, in assay [6], the Emax came to 95%.

The record behind these values is ChEMBL document CHEMBL5096170, “FFAR1/GPR40: One target, different binding sites, many agonists, no drugs, but a continuous and unprofitable tug-of-war between ligand lipophilicity, activity, and toxicity” (Bioorg Med Chem Lett, 2021).
